Assay results taken from PubChem BioAssay AID1918947 (Molecular Pharmacology Branch, DTP, NCI, 2023).

System: A498 complex spheroid viability
Assay: Anticancer human tumor A498 cell line growth inhibition;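 further: spheroids exposed to agents for seven days before readout; 100% = DMSO vehicle-treated spheroids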
Conditions: second compound 3.16 µM; first compound 0.3 µM; active compounds read low
Text: Multicellular complex tumor spheroid response to LSD1 Inhibitor Iadademstat in combination with a variety of drugs and investigational agents in selected tumor cell lines
The current study was undertaken to assess response to LSD1 inhibitors in combination with standard-of-care drugs and investigational agents in solid tumor complex spheroid models as well as in the K-562 leukemia. Complex spheroids include a stromal component modeled by human endothelial cells (HUVEC) and fibroblasts modeled by human mesenchymal stem cells (MSCs). The concentration ranges selected for each drug and investigational agent were based upon clinically achievable concentrations if the clinical Cmax of the agent was known.
Compounds. The drugs and investigational agents used in this study are listed on Table 1. All of the agents used, including staurosporine (NSC755774) and gemcitabine (NSC613327), were obtained from the Developmental Therapeutics Program, NCI. FDA-approved anticancer drugs are available from the NCI at http://dtp.nci.nih.gov/branches/dscb/oncology_drugset_explanation.html. Drugs and investigational agents were >95% pure by proton nuclear magnetic resonance (NMR) and liquid chromatography/mass spectrometry (LC/MS). Stock solutions were prepared at 400x in DMSO, stored at -70 degrees C, and diluted in fresh medium prior to their use. The final concentration of DMSO in cell culture wells never exceeded 0.25% (v/v). The FDA-approved anticancer drug set is available from the Developmental Therapeutics Program at https://dtp.cancer.gov/organization/dscb/obtaining/available_plates.htm. All drugs and investigational agents were tested over a range starting from a high concentration at or near the clinical Cmax and decreasing in half-log increments. If the clinical Cmax for an agent had not been determined, the highest concentration tested was 10 microM.
Cell Lines. The patient-derived cancer cell (PDC) lines: 292921-168-R-J2-PDC, K24384-001-R-PDC, and 521955-158-R2-J5-PDC pancreatic carcinomas, 556581-035-R-J1 ovarian carcinoma, 324938-238-R-J1-PDC, 855422-203-R-J1-PDC and 883617-216-R-J1-PDC urothelial bladder carcinomas, 743489-274-T-PDC renal cell carcinoma, 138582-R-J1 Merkel cell tumor, K60290-347-R-J1 and K57222-313-R-J1-PDC glioblastomas, 653999-131-R-J2-PDC, LG0703-F948-PDC, and 349418-098-R-PDC non-small cell lung carcinomas, 885512-296-R-J2-PDC, 171881-019-R-J1-PDC breast carcinomas and 186277-243-T-J2-PDC and 233499-124-R-J2-PDC colon carcinomas were obtained from the NCI Patient-Derived Models Repository (PDMR, https://pdmr.cancer.gov). The established cell lines NCI/ADR-RES (RRID:CVCL_14520 and OVCAR-5 (RRID:CVCL_1628) ovarian carcinomas, 786-O (RRID:CVCL_1051) and A498 (RRID:CVCL_A498) renal cell carcinoma, NCI-H211 (ATCC, cat. CRL-5824; RRID:CVCL_1529), NCI-H196 (ATCC, cat. CRL-5823, RRID:CVCL_1509), SW 1271 (ATCC, cat. CRL-2177, RRID:CVCL_1716) and NCI-H1876 (ATCC, cat. CRL-5902, RRID:CVCL_1503) small cell lung carcinomas, MDA-MB-231 (RRID:CVCL_0062) and MDA-MB-468 (RRID:CVCL_0419)breast carcinomas (10-12). Pooled donor human umbilical vein endothelial cells (HUVEC, Lonza, cat. CC-2519) and human mesenchymal stem cells (hMSC, Lonza, cat. PT-2501) were purchased from Lonza (Walkersville, MD).
Cell Culture. All cells were maintained in an incubator at 37 degrees C and 5% CO2 with 95% humidity. The PDC lines were cultured according to standard operating procedures established by the NCI PDMR (https://pdmr.cancer.gov). Briefly all PDCs were thawed and cultured in Matrigel-coated flasks prepared with a working solution of 1X Ham's F-12 nutrient mix, without supplementation (Invitrogen, Waltham, MA, cat. 11765054), 100 U/mL penicillin-streptomycin (Invitrogen, cat. 15140122), and 2.5% Matrigel (Corning Inc., Corning, NY, cat. 354248) for the first three passages. […]

SMILES | viability, T/C
Nc1ccccc1NC(=O)c1ccc(CNC(=O)OCc2cccnc2)cc1 + NC1CCC(NC2CC2c2ccccc2)CC1 | 42.7%
O=C(C=Cc1cccc(S(=O)(=O)Nc2ccccc2)c1)NO + NC1CC1c1ccc(-c2cccc(O)c2)cc1 | 52.2%
NS(=O)(=O)OCC1CC(n2ccc3c(NC4CCc5ccccc54)ncnc32)CC1O (stereo not given) + NC1CC1c1ccc(-c2cccc(O)c2)cc1 | 27.7%

Same assay, conditions: second compound 3.16 µM; first compound 0.949 µM; active compounds read low

SMILES | viability, T/C
COc1cc(C2c3cc4c(cc3C(OC3OC5COC(C)OC5C(O)C3O)C3COC(=O)C23)OCO4)cc(OC)c1O (stereo not given) + NC1CC1c1ccc(-c2cccc(O)c2)cc1 | 46.1%
Nc1ccccc1NC(=O)c1ccc(CNC(=O)OCc2cccnc2)cc1 + NC1CCC(NC2CC2c2ccccc2)CC1 | 16%
O=C(C=Cc1cccc(S(=O)(=O)Nc2ccccc2)c1)NO + NC1CC1c1ccc(-c2cccc(O)c2)cc1 | 37.6%
NS(=O)(=O)OCC1CC(n2ccc3c(NC4CCc5ccccc54)ncnc32)CC1O (stereo not given) + NC1CC1c1ccc(-c2cccc(O)c2)cc1 | 19%

Same assay, conditions: second compound 3.16 µM; first compound 3 µM; active compounds read low

SMILES | viability, T/C
COc1cc(C2c3cc4c(cc3C(OC3OC5COC(C)OC5C(O)C3O)C3COC(=O)C23)OCO4)cc(OC)c1O (stereo not given) + NC1CC1c1ccc(-c2cccc(O)c2)cc1 | 42.9%
Nc1ccccc1NC(=O)c1ccc(CNC(=O)OCc2cccnc2)cc1 + NC1CCC(NC2CC2c2ccccc2)CC1 | 0.8%
O=C(C=Cc1cccc(S(=O)(=O)Nc2ccccc2)c1)NO + NC1CC1c1ccc(-c2cccc(O)c2)cc1 | 5.52%
NS(=O)(=O)OCC1CC(n2ccc3c(NC4CCc5ccccc54)ncnc32)CC1O (stereo not given) + NC1CC1c1ccc(-c2cccc(O)c2)cc1 | 14.9%

Same assay, conditions: second compound 10 µM; first compound 0.00949 µM; active compounds read low

SMILES | viability, T/C
COc1cc(C2c3cc4c(cc3C(OC3OC5COC(C)OC5C(O)C3O)C3COC(=O)C23)OCO4)cc(OC)c1O (stereo not given) + NC1CC1c1ccc(-c2cccc(O)c2)cc1 | 63.5%
Nc1ccccc1NC(=O)c1ccc(CNC(=O)OCc2cccnc2)cc1 + NC1CCC(NC2CC2c2ccccc2)CC1 | 62%
O=C(C=Cc1cccc(S(=O)(=O)Nc2ccccc2)c1)NO + NC1CC1c1ccc(-c2cccc(O)c2)cc1 | 93.2%
NS(=O)(=O)OCC1CC(n2ccc3c(NC4CCc5ccccc54)ncnc32)CC1O (stereo not given) + NC1CC1c1ccc(-c2cccc(O)c2)cc1 | 90.8%

Same assay, conditions: second compound 10 µM; first compound 0.03 µM; active compounds read low

SMILES | viability, T/C
COc1cc(C2c3cc4c(cc3C(OC3OC5COC(C)OC5C(O)C3O)C3COC(=O)C23)OCO4)cc(OC)c1O (stereo not given) + NC1CC1c1ccc(-c2cccc(O)c2)cc1 | 61.1%
Nc1ccccc1NC(=O)c1ccc(CNC(=O)OCc2cccnc2)cc1 + NC1CCC(NC2CC2c2ccccc2)CC1 | 59.3%
O=C(C=Cc1cccc(S(=O)(=O)Nc2ccccc2)c1)NO + NC1CC1c1ccc(-c2cccc(O)c2)cc1 | 81.3%
NS(=O)(=O)OCC1CC(n2ccc3c(NC4CCc5ccccc54)ncnc32)CC1O (stereo not given) + NC1CC1c1ccc(-c2cccc(O)c2)cc1 | 53.2%

Same assay, conditions: second compound 10 µM; first compound 0.0949 µM; active compounds read low

SMILES | viability, T/C
COc1cc(C2c3cc4c(cc3C(OC3OC5COC(C)OC5C(O)C3O)C3COC(=O)C23)OCO4)cc(OC)c1O (stereo not given) + NC1CC1c1ccc(-c2cccc(O)c2)cc1 | 57.5%
Nc1ccccc1NC(=O)c1ccc(CNC(=O)OCc2cccnc2)cc1 + NC1CCC(NC2CC2c2ccccc2)CC1 | 57.4%
O=C(C=Cc1cccc(S(=O)(=O)Nc2ccccc2)c1)NO + NC1CC1c1ccc(-c2cccc(O)c2)cc1 | 66.7%
NS(=O)(=O)OCC1CC(n2ccc3c(NC4CCc5ccccc54)ncnc32)CC1O (stereo not given) + NC1CC1c1ccc(-c2cccc(O)c2)cc1 | 40.3%

Same assay, conditions: second compound 10 µM; first compound 0.3 µM; active compounds read low

SMILES | viability, T/C
COc1cc(C2c3cc4c(cc3C(OC3OC5COC(C)OC5C(O)C3O)C3COC(=O)C23)OCO4)cc(OC)c1O (stereo not given) + NC1CC1c1ccc(-c2cccc(O)c2)cc1 | 51.7%
Nc1ccccc1NC(=O)c1ccc(CNC(=O)OCc2cccnc2)cc1 + NC1CCC(NC2CC2c2ccccc2)CC1 | 47%
O=C(C=Cc1cccc(S(=O)(=O)Nc2ccccc2)c1)NO + NC1CC1c1ccc(-c2cccc(O)c2)cc1 | 55.5%
NS(=O)(=O)OCC1CC(n2ccc3c(NC4CCc5ccccc54)ncnc32)CC1O (stereo not given) + NC1CC1c1ccc(-c2cccc(O)c2)cc1 | 29.9%

Same assay, conditions: second compound 10 µM; first compound 0.949 µM; active compounds read low

SMILES | viability, T/C
COc1cc(C2c3cc4c(cc3C(OC3OC5COC(C)OC5C(O)C3O)C3COC(=O)C23)OCO4)cc(OC)c1O (stereo not given) + NC1CC1c1ccc(-c2cccc(O)c2)cc1 | 47.4%
Nc1ccccc1NC(=O)c1ccc(CNC(=O)OCc2cccnc2)cc1 + NC1CCC(NC2CC2c2ccccc2)CC1 | 16.3%
O=C(C=Cc1cccc(S(=O)(=O)Nc2ccccc2)c1)NO + NC1CC1c1ccc(-c2cccc(O)c2)cc1 | 30.7%
NS(=O)(=O)OCC1CC(n2ccc3c(NC4CCc5ccccc54)ncnc32)CC1O (stereo not given) + NC1CC1c1ccc(-c2cccc(O)c2)cc1 | 18.4%

Same assay, conditions: second compound 10 µM; first compound 3 µM; active compounds read low

SMILES | viability, T/C
COc1cc(C2c3cc4c(cc3C(OC3OC5COC(C)OC5C(O)C3O)C3COC(=O)C23)OCO4)cc(OC)c1O (stereo not given) + NC1CC1c1ccc(-c2cccc(O)c2)cc1 | 41.7%
Nc1ccccc1NC(=O)c1ccc(CNC(=O)OCc2cccnc2)cc1 + NC1CCC(NC2CC2c2ccccc2)CC1 | 0.91%
O=C(C=Cc1cccc(S(=O)(=O)Nc2ccccc2)c1)NO + NC1CC1c1ccc(-c2cccc(O)c2)cc1 | 5.21%
NS(=O)(=O)OCC1CC(n2ccc3c(NC4CCc5ccccc54)ncnc32)CC1O (stereo not given) + NC1CC1c1ccc(-c2cccc(O)c2)cc1 | 15%
